The structures appear in SMILES notation.

The target of assay [1] is T1, 3-phosphoinositide-dependent protein kinase 1 (Homo sapiens) (UniProt O15530).
T1 sequence (whole entry): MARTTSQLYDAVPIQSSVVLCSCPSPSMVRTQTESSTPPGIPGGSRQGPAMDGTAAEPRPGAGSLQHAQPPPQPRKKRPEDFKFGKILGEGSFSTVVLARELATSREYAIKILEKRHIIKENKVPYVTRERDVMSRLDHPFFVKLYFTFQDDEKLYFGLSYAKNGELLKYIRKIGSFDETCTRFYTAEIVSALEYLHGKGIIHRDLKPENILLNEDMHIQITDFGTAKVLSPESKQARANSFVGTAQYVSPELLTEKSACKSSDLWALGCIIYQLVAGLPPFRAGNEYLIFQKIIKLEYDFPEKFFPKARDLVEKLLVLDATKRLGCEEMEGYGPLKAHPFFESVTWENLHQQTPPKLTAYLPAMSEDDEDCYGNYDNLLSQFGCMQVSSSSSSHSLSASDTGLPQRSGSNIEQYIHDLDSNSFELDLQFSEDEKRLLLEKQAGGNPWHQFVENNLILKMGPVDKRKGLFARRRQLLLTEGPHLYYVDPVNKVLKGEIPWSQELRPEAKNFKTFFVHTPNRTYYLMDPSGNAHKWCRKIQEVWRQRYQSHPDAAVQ
Description: Inhibition of human PDK1/PDPK1 using KTFCGTPEYLAPEVRREPRILSEEEQEMFRDFDYIADWC as substrate at 1 uM in presence of 32P-ATP by Hotspot assay relative to control; values are per cent of control.

Assay [2] concerns the target Ribosomal protein S6 kinase beta-2 (Homo sapiens) (UniProt Q9UBS0). Description: Inhibition of human p70S6Kb/RPS6KB2 using KKRNRTLTK as substrate at 1 uM in presence of 32P-ATP by Hotspot assay relative to control; values are per cent of control.
For assay [3], the target named is Calcium/calmodulin-dependent protein kinase type 1D (Homo sapiens) (UniProt Q8IU85). Description: Inhibition of human CAMK1d using KKALRRQETVDAL as substrate at 1 uM in presence of 32P-ATP by Hotspot assay relative to control; values are per cent of control.
The target of assay [4] is Calcium/calmodulin-dependent protein kinase kinase 2 (Homo sapiens) (UniProt Q96RR4). Description: Inhibition of human CAMKK2 using myelin basic protein as substrate at 1 uM in presence of 32P-ATP by Hotspot assay relative to control; values are per cent of control.
A further assay is filed under the species Homo sapiens. Nature of the assay: Inhibition of human PKA using LCGRTGRRNSI as substrate at 1 uM in presence of 32P-ATP by Hotspot assay relative to control; values are per cent of control.
Assay [5] deals with T2, Serine/threonine-protein kinase haspin (Homo sapiens) (UniProt Q8TF76).
T2 sequence (whole entry): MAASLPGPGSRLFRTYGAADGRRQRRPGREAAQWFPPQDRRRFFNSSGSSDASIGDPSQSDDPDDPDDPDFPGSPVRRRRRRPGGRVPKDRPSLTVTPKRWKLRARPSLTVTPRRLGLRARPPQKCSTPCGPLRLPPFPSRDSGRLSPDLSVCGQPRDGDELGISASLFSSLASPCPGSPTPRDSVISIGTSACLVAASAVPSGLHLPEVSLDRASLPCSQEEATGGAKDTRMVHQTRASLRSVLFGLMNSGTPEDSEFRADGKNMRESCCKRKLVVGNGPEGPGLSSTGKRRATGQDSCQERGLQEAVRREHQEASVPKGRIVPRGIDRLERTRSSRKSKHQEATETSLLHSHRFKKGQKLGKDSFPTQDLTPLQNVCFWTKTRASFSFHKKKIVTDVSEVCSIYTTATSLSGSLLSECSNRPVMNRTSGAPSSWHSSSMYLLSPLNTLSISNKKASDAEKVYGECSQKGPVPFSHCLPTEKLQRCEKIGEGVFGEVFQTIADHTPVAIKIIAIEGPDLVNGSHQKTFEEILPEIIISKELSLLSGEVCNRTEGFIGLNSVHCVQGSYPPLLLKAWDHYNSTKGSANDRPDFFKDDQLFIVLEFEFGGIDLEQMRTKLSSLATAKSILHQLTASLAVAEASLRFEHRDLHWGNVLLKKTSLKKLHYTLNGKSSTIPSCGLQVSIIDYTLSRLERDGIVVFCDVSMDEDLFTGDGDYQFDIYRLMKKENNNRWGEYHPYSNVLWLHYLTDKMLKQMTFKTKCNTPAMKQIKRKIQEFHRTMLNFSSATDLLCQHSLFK
Description: Inhibition of human Haspin using histone H3 as substrate at 1 uM in presence of 32P-ATP by Hotspot assay relative to control; values are per cent of control.

Assay [6] has as its target RAF proto-oncogene serine/threonine-protein kinase (Homo sapiens) (UniProt P04049). Description: Inhibition of human RAF1 using MEK1 (K97R) as substrate at 1 uM in presence of 32P-ATP by Hotspot assay relative to control; values are per cent of control.
Assay [7] has as its target Mitogen-activated protein kinase 14 (Homo sapiens) (UniProt Q16539). Nature of the assay: Inhibition of human P38a/MAPK14 using myelin basic protein as substrate at 1 uM in presence of 32P-ATP by Hotspot assay relative to control; values are per cent of control.
For assay [8], the target named is T3, Activin receptor type-1 (Homo sapiens) (UniProt Q04771).
T3 sequence (whole entry): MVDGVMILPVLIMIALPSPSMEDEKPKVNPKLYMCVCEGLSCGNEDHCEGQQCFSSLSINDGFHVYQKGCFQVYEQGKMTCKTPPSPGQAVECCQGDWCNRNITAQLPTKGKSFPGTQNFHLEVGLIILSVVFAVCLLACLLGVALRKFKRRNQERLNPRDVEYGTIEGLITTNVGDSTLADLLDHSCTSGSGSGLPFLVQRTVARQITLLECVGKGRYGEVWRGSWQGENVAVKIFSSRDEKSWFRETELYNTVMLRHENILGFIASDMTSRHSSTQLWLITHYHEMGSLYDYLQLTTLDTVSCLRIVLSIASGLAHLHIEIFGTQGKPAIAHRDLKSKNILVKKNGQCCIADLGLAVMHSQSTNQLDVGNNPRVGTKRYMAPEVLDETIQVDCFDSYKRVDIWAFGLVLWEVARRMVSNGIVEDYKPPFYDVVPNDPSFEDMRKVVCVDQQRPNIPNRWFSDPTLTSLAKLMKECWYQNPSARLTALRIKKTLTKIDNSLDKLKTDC
Nature of the assay: Inhibition of human ALK2/ACVR1 using casein as substrate at 1 uM in presence of 32P-ATP by Hotspot assay relative to control; values are per cent of control.

For assay [9], the target named is SRSF protein kinase 2 (Homo sapiens) (UniProt P78362). Description: Inhibition of human SRPK2 using GRSRSRSRSR as substrate at 1 uM in presence of 32P-ATP by Hotspot assay relative to control; values are per cent of control.
SRSF protein kinase 2 (Homo sapiens), sequence (P78362 whole entry, looked up): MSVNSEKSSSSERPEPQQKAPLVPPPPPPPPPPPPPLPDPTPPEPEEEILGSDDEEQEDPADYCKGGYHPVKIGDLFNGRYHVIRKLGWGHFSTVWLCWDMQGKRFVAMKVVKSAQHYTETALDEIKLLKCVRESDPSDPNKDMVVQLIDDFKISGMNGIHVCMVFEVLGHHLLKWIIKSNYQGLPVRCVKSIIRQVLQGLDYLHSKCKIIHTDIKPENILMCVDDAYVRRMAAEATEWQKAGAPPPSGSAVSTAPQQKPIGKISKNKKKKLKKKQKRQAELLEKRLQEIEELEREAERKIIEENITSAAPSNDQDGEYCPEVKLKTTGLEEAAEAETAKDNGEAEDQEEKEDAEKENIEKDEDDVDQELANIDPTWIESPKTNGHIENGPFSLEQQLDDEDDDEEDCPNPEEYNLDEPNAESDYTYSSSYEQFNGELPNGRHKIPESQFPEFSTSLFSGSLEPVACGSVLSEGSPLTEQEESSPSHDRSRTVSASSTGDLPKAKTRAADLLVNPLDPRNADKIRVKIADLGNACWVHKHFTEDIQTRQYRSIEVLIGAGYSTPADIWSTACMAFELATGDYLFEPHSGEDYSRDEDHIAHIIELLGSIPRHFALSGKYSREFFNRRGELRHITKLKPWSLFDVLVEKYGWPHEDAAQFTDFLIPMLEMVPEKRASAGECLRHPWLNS

Ribosomal protein S6 kinase beta-2 (Homo sapiens), sequence (Q9UBS0 whole entry): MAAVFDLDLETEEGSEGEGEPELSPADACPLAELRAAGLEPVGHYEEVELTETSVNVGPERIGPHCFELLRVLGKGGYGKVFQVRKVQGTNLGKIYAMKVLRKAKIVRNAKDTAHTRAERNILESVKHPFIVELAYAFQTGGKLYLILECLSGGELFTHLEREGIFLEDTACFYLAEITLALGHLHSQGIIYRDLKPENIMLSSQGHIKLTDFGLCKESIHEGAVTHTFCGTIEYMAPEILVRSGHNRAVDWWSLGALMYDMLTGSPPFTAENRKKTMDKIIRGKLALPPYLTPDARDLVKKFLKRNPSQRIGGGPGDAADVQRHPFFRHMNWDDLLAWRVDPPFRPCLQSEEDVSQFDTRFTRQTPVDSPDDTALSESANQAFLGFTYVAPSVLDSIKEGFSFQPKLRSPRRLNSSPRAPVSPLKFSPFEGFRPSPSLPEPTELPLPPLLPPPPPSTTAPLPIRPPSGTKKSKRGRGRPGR
Mitogen-activated protein kinase 14 (Homo sapiens), sequence (Q16539 whole entry): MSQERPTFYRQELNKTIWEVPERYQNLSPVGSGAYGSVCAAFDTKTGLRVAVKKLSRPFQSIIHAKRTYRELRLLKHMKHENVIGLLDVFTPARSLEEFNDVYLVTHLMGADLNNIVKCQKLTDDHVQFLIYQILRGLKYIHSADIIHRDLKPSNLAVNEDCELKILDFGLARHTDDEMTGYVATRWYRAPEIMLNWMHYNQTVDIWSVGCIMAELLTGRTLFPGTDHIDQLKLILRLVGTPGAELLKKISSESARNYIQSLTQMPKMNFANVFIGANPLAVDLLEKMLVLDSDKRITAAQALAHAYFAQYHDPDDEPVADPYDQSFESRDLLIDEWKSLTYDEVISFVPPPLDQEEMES
Calcium/calmodulin-dependent protein kinase type 1D (Homo sapiens), sequence (Q8IU85 whole entry, looked up): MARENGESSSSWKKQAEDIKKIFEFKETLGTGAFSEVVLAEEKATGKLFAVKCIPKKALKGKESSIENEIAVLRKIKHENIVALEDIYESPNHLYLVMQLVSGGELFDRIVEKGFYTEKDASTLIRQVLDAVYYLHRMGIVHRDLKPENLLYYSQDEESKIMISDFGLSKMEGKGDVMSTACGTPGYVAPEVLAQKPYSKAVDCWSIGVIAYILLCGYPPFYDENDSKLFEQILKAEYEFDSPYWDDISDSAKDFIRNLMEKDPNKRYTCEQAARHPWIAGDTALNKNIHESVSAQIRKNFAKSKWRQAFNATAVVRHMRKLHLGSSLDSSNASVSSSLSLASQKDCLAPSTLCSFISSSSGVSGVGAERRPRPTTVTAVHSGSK
RAF proto-oncogene serine/threonine-protein kinase (Homo sapiens), sequence (P04049 whole entry): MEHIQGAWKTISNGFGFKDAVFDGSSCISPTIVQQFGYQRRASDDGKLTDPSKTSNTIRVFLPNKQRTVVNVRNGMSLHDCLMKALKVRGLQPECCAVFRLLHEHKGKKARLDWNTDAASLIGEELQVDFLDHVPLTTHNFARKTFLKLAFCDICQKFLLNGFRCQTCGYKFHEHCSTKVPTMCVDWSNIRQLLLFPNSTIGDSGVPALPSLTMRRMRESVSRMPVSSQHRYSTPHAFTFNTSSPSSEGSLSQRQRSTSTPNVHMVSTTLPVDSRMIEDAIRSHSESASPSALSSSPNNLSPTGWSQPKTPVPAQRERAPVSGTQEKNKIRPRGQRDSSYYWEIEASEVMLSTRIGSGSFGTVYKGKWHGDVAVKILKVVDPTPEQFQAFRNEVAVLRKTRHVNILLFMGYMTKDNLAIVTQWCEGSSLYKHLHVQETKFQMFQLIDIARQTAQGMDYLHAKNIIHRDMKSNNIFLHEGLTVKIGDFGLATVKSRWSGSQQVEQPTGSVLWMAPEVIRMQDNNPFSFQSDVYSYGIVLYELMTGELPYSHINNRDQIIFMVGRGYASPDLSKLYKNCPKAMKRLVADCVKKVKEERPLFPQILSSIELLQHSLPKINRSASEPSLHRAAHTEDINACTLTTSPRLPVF
Calcium/calmodulin-dependent protein kinase kinase 2 (Homo sapiens), sequence (Q96RR4 2-588 limits assumed): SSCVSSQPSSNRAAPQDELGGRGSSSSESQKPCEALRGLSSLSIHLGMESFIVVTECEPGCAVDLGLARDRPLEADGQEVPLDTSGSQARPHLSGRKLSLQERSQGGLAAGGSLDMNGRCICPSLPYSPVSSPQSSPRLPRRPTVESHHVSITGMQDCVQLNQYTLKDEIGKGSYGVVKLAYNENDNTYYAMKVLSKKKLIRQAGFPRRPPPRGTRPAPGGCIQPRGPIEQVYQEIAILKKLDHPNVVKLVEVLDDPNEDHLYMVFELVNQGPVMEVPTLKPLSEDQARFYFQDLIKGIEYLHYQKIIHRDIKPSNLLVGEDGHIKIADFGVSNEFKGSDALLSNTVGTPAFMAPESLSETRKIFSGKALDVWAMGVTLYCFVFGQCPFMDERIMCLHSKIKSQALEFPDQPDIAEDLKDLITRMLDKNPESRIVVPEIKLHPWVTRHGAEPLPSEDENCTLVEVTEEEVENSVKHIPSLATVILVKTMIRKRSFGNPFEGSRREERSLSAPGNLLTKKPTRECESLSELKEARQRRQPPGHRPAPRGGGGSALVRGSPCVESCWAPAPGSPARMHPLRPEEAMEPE

In the case of `CC(C)S(=O)(=O)c1ccc2nccc(Nc3ccc4scnc4c3)c2c1`, the residual activity in assay [1] was 98.6%; in assay [2] it was 92.8%; in assay [3], 99%; in assay [4] it was 92.3%; in the assay listed under Homo sapiens, 97.7%; in assay [5], 86.2%. In addition, the residual activity amounted to 54.1% in assay [6], 91.5% in assay [7], 102% in assay [8] and 94% in [9].
`CNC(=O)c1ccc2c(c1)ncn2-c1ccc(CC(=O)OC(C)(C)C)cc1`: the residual activity in [1] came to 100%; in [2], 92.3%; in assay [3], 99.1%; in [4] it was 87.7%; in the assay filed under Homo sapiens, 101%; in [5], 98.1%. The residual activity in assay [6] was 91.3%; in assay [7] it was 95.8%; in assay [8], 80.4%; in assay [9], 98.5%.
With `Cc1cc(-c2cnc(N)c3c(-c4ccc5scnc5c4)csc23)n(C)n1`, the residual activity was 101% in assay [1]; 95.1% in assay [2]; 97.8% in assay [3]; 87.7% in assay [4]; 94.9% in the assay filed under Homo sapiens; 95.5% in assay [5]. For the same molecule, the residual activity in assay [6] stood at 50.5%; in [7], 40.9%; in assay [8], 101%; in assay [9] it was 96.2%.

The values are drawn from ChEMBL document CHEMBL5649166, “RIP3 induces apoptosis independent of pronecrotic kinase activity” (Mol Cell, 2014).
